Key:
[1] = tested on: mouse colorectal cancer cell line CT26.WT; assay: ICD induction evaluation (in vitro): ATP in culture supernatant; assay type: cell-based; details: CT26.WT culture supernatant after 24 hours; MTX 0.4-6 μM vs control (0 μM); compound (A) 1-16 μM vs R10 or R10-DMSO
Description: In cancer cells treated with different compounds, the ATP level, and the expression level of HMGB1, which serve as an index of Immunogenic cell death (ICD), were measured. Cells of mouse colorectal cancer cell line CT26.WT were seeded in a 6-well plate and cultured overnight. After the supernatant was removed, the cells were washed twice with PBS. Compound (A) was dissolved in RPMI1640 culture solution containing 10% FBS (R10) to prepare solutions having a final concentration of 0, 1, 4 and 16 μM. As a positive control, Mitoxantrone (MTX) was dissolved in DMSO and added at a final concentration of 0.4, 1.5 and 6 μM. To the control (0 μM) herein, DMSO was added in the same amount as that of compound (A) (R10-DMSO). Twenty four hours later, the culture supernatant was collected, and the levels of ATP and HMGB1 were measured. The level of ATP was measured by adding the culture supernatant in a 96-well white plate, adding the same amount of Back titer-Glo (manufactured by Promega Corporation) and determining the amount of luminescence by a plate reader. The level of HMGB1 was detected by a HMGB1 ELISA-kit (manufactured by Shino-Test Corporation) in accordance with the Sandwich ELISA method. […] The absorbance at 405 nm was measured by a plate reader. […] The results satisfying P<0.05 (two-sided test) were determined as being significant.

[2] = tested on: mouse colorectal cancer cell line CT26.WT; assay: ICD induction evaluation (in vitro): HMGB1 in culture supernatant (ELISA); assay type: cell-based; details: for release of HMGB1, maximum, relative to control: CT26.WT culture supernatant after 24 hours, MTX 0.4-6 μM vs control (0 μM), compound (A) 1-16 μM vs R10 or R10-DMSO; for HMGB1 released in the culture supernatant (confirmation of ICD induction): Example 3, CT26.WT, compound (A) 4 μM or MTX 1 μM, 24 hours
Description: In cancer cells treated with different compounds, the ATP level, and the expression level of HMGB1, which serve as an index of Immunogenic cell death (ICD), were measured. Cells of mouse colorectal cancer cell line CT26.WT were seeded in a 6-well plate and cultured overnight. After the supernatant was removed, the cells were washed twice with PBS. Compound (A) was dissolved in RPMI1640 culture solution containing 10% FBS (R10) to prepare solutions having a final concentration of 0, 1, 4 and 16 μM. As a positive control, Mitoxantrone (MTX) was dissolved in DMSO and added at a final concentration of 0.4, 1.5 and 6 μM. To the control (0 μM) herein, DMSO was added in the same amount as that of compound (A) (R10-DMSO). Twenty four hours later, the culture supernatant was collected, and the levels of ATP and HMGB1 were measured. The level of ATP was measured by adding the culture supernatant in a 96-well white plate, adding the same amount of Back titer-Glo (manufactured by Promega Corporation) and determining the amount of luminescence by a plate reader. The level of HMGB1 was detected by a HMGB1 ELISA-kit (manufactured by Shino-Test Corporation) in accordance with the Sandwich ELISA method. In the plate provided in the kit, a test buffer was added, and thereafter, an HMGB1 standard solution diluted with the test buffer and the culture supernatant were added thereto. It was allowed to stand at 37° C. for 24 hours. After the supernatant was removed and the cells were washed five times with PBS/Tween 20 (200 μL/well), a secondary-antibody solution provided in the kit was added in an amount of 100 μL/well. It was allowed to stand at room temperature for 2 hours. After the supernatant was removed, the cells were washed five times with PBS/Tween 20 (200 μL/well). Thereafter, a color-producing solution provided in the kit was added in an amount of 100 μL/well. The plate was allowed to stand at room temperature for 30 minutes. A stop solution (100 μL/well) was added and stirred. The absorbance at 405 nm was measured by a plate reader. The results of the control group and compound (A) group were compared in accordance with the Dunnett's test. P value was expressed to four decimal places. The results satisfying P<0.05 (two-sided test) were determined as being significant.
(§1) Cells of mouse colorectal cancer cell line CT26.WT were seeded in a cell-culture flask and cultured overnight. The supernatant was removed and the cells were washed twice with PBS. To induce ICD, compound (A) (4 μM) or MTX (1 μM) was added in a RPMI1640 culture solution containing 10% FBS (R10). Twenty four hours later, HMGB1 in the culture supernatant was measured in accordance with the method shown in Example 1 in order to confirm ICD induction.

CT26.WT cells = assay: Evaluation of in vivo ICD induction (vaccination effect, re-challenge); parameters: species or system BALB/c mice; details: mice inoculated with drug-treated CT26.WT cells, n=6
Description: as §1
For evaluating in vivo ICD, the culture supernatant was removed from each of the culture flasks treated with drugs and the cells were washed twice with PBS, and then cells were collected. The supernatant was removed and the cells were washed once with PBS to prepare a suspension containing 5.0×10^6 cells/mL. As a control, a suspension was prepared by adding CT26.WT cells, which were cultured in a RPMI1640 culture solution containing 10% FBS without a drug, in an amount of 5.0×10^6 cells/mL, in the same manner as above. After centrifugation, the supernatant was removed. The cells were subjected to a freeze-thaw process repeatedly three times and suspended again in PBS to obtain Necrotic cell death (NCD) cells.
The cells (5.0×10^6 cells) of each group mentioned above were subcutaneously inoculated into the right axilla of each of female 6 week-old BALB/c mice (BALB/c AnNCrlCrlj) (bred by CHARLES RIVER LABORATORIES JAPAN, INC.) (inoculation, Day 0). An anti-SIRPα antibody (clone: 5C12) or an anti-CD47 antibody (clone: MIAP410, manufactured by Bio X Cell, Inc.) was intraperitoneally administered at a dose of 10 mg/kg on Day 1 and 5 (two times in total). As a control, the same amount of PBS was administered. Seven days later, CT26.WT cells (3.0×10^6 cells) not treated with a drug were subcutaneously inoculated into the left axilla of each of the mice (re-challenge, Day 0). On Day 14, tumor volumes were measured to evaluate vaccination effect. Note that the number of mice per group was 6. The results of the NCD-PBS group and individual groups were compared in accordance with the Dunnett's test, P value was expressed to four decimal places. The results satisfying P<0.05 (two-sided test) were determined as being significant.

[3] = PBS administration, re-challenge, Day 14
[4] = plus anti-SIRPα antibody (clone 5C12) 10 mg/kg i.p. Day 1 and 5

| Structure (SMILES) | release of ATP, maximum, relative to control [1] | release of HMGB1, maximum, relative to control [2] | HMGB1 released in the culture supernatant (confirmation of ICD induction) [2] | number of CR individuals (engraftment of re-challenged tumor rejected) (CT26.WT cells; [3]) | number of CR individuals (engraftment of re-challenged tumor rejected) (CT26.WT cells; plus anti-CD47 antibody (clone MIAP410) 10 mg/kg i.p. Day 1 and 5) | number of CR individuals (engraftment of re-challenged tumor rejected) (CT26.WT cells; [4]) |
| --- | --- | --- | --- | --- | --- | --- |
| CC[C@@]1(O)C(=O)OCc2c1cc1n(c2=O)Cc2c-1nc1cc(F)c(C)c3c1c2[C@@H](NC(=O)CO)CC3 [compound (A)] | about 4.6 times | about 4.6 times | released | 5/6 | all cases show CR | all cases show CR |
| O=C1c2c(O)ccc(O)c2C(=O)c2c(NCCNCCO)ccc(NCCNCCO)c21 [MTX, Mitoxantrone, reference compound] | about 4 times | about 3 times | released | 2/6 |  | 4/6 |
